# Where a name gives a salt, the structure may show the parent alone.
# Columns and labels:
# [1] = Oral bioavailability of peptide amphetamine conjugates (HCl salts, ELISA); details: rats
# [2] = Intranasal bioavailability of peptide amphetamine conjugates (HCl salts, ELISA); details: for Percent AUC (bioavailability relative to Amphetamine) / Percent Cmax (relative to Amphetamine): Intranasal, rats
# [3] = Kitchen tests: water, acid (vinegar), base (baking powder, baking soda), boiling; format: physicochemical; details: for free amphetamine released: heated to boiling for 20-60 minutes
# Procedure: “Kitchen tests” were performed in anticipation of attempts by illicit chemists to release free amphetamine from the amphetamine conjugate.
# [4] = Intravenous bioavailability of peptide amphetamine conjugates (HCl salts, ELISA); details: rats
# [5] = test system: rats; details: cited from earlier work
# [6] = Oral bioavailability at escalating doses (LC/MS/MS); details: rat, oral
# [7] = test system: rats; experiment: Single oral dose toxicity; format: in vivo, Sprague Dawley rats; details: rat, single oral dose
# Procedure: Three male and three female Sprague Dawley rats per group were given a single oral administration of L-lysine-d-amphetamine at 0.1, 1.0, 10, 60, 100, or 1000 mg/kg (Table 53).
# Animals found dead, or sacrificed moribund were necropsied and discarded.
# [8] = test system: enzyme cocktails (pepsin, pancreatin, pronase, esterase, Omnigest, VitälZym); experiment: Stability under treatment with commercially available enzyme cocktails; format: in vitro ADME; details: 37° C.
# Procedure: For acids and bases (Table 59), 10 mg of Lys-Amp was mixed with 2 mL of each stock solution, and the solution was shaken at 20° C. For enzyme treatment (Table 60), 10 mg Lys-Amp was mixed with 5 mL of each enzyme cocktail, and the solution was shaken at 37° C. […] Many of the commercially available reagents also contained various solvents and/or surfactants.
# Unless otherwise indicated, solutions were used directly from the container and were combined with neat Lys-Amp solid. Lewis Red Devil® Lye, Enforcer Drain Care® Septic Treatment, and Rid-X® Septic Treatment were prepared as saturated solutions in H2O. Enzymes used were purchased from Sigma and directly dissolved in water (3 mg/mL pepsin, 10 mg/mL pancreatin, 3 mg/mL pronase, 3 mg/mL esterase), while enzyme-containing nutraceuticals such as Omnigest® and VitälZym® were first either crushed or opened (1 tablet or capsule per 5 mL of H2O).
# [9] = Stability under basic conditions
# [10] = test system: children with ADHD; experiment: Pediatric efficacy trial, ADHD-RS and CPRS, parallel-group, four weeks; details: children 6-12, 30, 50 or 70 mg once daily
compound,measurement,setting,value
[2H]OC(=O)CC[C@H](N)C(=O)NC(C)Cc1ccccc1 (some centres unmarked) [E-Amp],Percent AUC (bioavailability relative to Amphetamine),[1],73%
same,Percent Cmax (relative to Amphetamine),[1],95%
[2H]OC(=O)CC[C@H](NC(=O)[C@@H](N)CCC(=O)O)C(=O)NC(C)Cc1ccccc1 (some centres unmarked) [EE-Amp],Percent AUC (bioavailability relative to Amphetamine),[1],26%
same,Percent Cmax (relative to Amphetamine),[1],74%
[2H]OC(=O)CC[C@H](NC(=O)[C@H](CCC(=O)O)NC(=O)[C@@H](N)CCC(=O)O)C(=O)NC(C)Cc1ccccc1 (some centres unmarked) [EEE-Amp],Percent AUC (bioavailability relative to Amphetamine),[1],69%
same,Percent Cmax (relative to Amphetamine),[1],53%
same,Percent AUC (bioavailability relative to Amphetamine),[2],10%
same,Percent Cmax (relative to Amphetamine),[2],10%
[2H]N(C(=O)[C@H](CCC(=O)O)NC(=O)[C@@H](N)CCC(=O)O)[C@@H](Cc1ccccc1)C(=O)NC(C)Cc1ccccc1 (some centres unmarked) [EEF-Amp],Percent AUC (bioavailability relative to Amphetamine),[1],42%
same,Percent Cmax (relative to Amphetamine),[1],73%
same,Percent AUC (bioavailability relative to Amphetamine),[2],39%
same,Percent Cmax (relative to Amphetamine),[2],29%
[2H]N(C(=O)[C@@H](N)Cc1ccccc1)[C@@H](Cc1ccccc1)C(=O)NC(C)Cc1ccccc1 (some centres unmarked) [FF-Amp],Percent AUC (bioavailability relative to Amphetamine),[1],27%
same,Percent Cmax (relative to Amphetamine),[1],64%
CC(Cc1ccccc1)NC(=O)CN (centres unmarked) [G-Amp],Percent AUC (bioavailability relative to Amphetamine),[1],81%
same,Percent Cmax (relative to Amphetamine),[1],78%
same,Percent AUC (bioavailability relative to Amphetamine),[2],65%
same,Percent Cmax (relative to Amphetamine),[2],53%
[2H]N(CC(=O)NC(C)Cc1ccccc1)C(=O)CN (centres unmarked) [GG-Amp],Percent AUC (bioavailability relative to Amphetamine),[1],79%
same,Percent Cmax (relative to Amphetamine),[1],88%
same,Percent AUC (bioavailability relative to Amphetamine),[2],88%
same,Percent Cmax (relative to Amphetamine),[2],85%
"CC(Cc1ccccc1)NC(=O)CNC(=O)CNC(=O)CN (centres unmarked) [Gly3-Amp, 2-amino-N-({[(1-methyl-2-phenyl-ethylcarbornyl)-methyl]-carbornyl}-methyl)-acetamide]",free amphetamine released,[3]; Baking Powder,0%
same,free amphetamine released,[3]; Baking Soda,0%
same,free amphetamine released,[3]; Tap Water,0%
same,free amphetamine released,[3]; Vinegar,0%
same,Release of free amphetamine in kitchen tests,"[3]; water, vinegar, baking powder, baking soda, boiling 20-60 minutes",no detectable free amphetamine
CC(Cc1ccccc1)NC(=O)C(O)C(O)C(O)C(O)CO (centres unmarked) [Gulonate-Amp],Percent AUC (bioavailability relative to Amphetamine),[1],1%
same,Percent Cmax (relative to Amphetamine),[1],1%
same,Percent AUC (bioavailability relative to Amphetamine),[2],0.4%
same,Percent Cmax (relative to Amphetamine),[2],0.5%
same,Percent AUC (bioavailability relative to Amphetamine),[4],3%
same,Percent Cmax (relative to Amphetamine),[4],5%
[2H]N[C@@H](Cc1c[nH]cn1)C(=O)NC(C)Cc1ccccc1 (some centres unmarked) [H-Amp],Percent AUC (bioavailability relative to Amphetamine),[1],16%
same,Percent Cmax (relative to Amphetamine),[1],21%
same,Percent AUC (bioavailability relative to Amphetamine),[2],22%
same,Percent Cmax (relative to Amphetamine),[2],42%
[2H]N[C@H](C(=O)NC(C)Cc1ccccc1)[C@@H](C)CC (some centres unmarked) [I-Amp],Percent AUC (bioavailability relative to Amphetamine),[1],71%
same,Percent Cmax (relative to Amphetamine),[1],52%
same,Percent AUC (bioavailability relative to Amphetamine),[2],73%
same,Percent Cmax (relative to Amphetamine),[2],97%
[2H]N(CC(=O)NC(C)Cc1ccccc1)C(=O)[C@@H](N)CCCCN (some centres unmarked) [KG-Amp],Percent AUC (bioavailability relative to Amphetamine),[1],69%
same,Percent Cmax (relative to Amphetamine),[1],71%
same,Percent AUC (bioavailability relative to Amphetamine),[2],13%
same,Percent Cmax (relative to Amphetamine),[2],12%
[2H]N[C@@H](CC(C)C)C(=O)NC(C)Cc1ccccc1 (stereo partly drawn) [L-Amp],Percent AUC (bioavailability relative to Amphetamine),[1],65%
same,Percent Cmax (relative to Amphetamine),[1],81%
[2H]OC(=O)CC[C@H](NC(=O)[C@@H](N)CC(C)C)C(=O)NC(C)Cc1ccccc1 (some centres unmarked) [LE-Amp],Percent AUC (bioavailability relative to Amphetamine),[1],40%
same,Percent Cmax (relative to Amphetamine),[1],28%
same,Percent AUC (bioavailability relative to Amphetamine),[2],6%
same,Percent Cmax (relative to Amphetamine),[2],6%
[2H]N1CCC[C@H]1C(=O)NC(C)Cc1ccccc1 (some centres unmarked) [P-Amp],Percent AUC (bioavailability relative to Amphetamine),[1],6%
same,Percent Cmax (relative to Amphetamine),[1],3%
same,Percent AUC (bioavailability relative to Amphetamine),[2],2%
same,Percent Cmax (relative to Amphetamine),[2],2%
CC(Cc1ccccc1)NC(=O)C1CCCN1C(=O)C1CCCN1 (centres unmarked) [PP-Amp],Percent AUC (bioavailability relative to Amphetamine),[1],61%
same,Percent Cmax (relative to Amphetamine),[1],80%
same,Percent AUC (bioavailability relative to Amphetamine),[2],47%
same,Percent Cmax (relative to Amphetamine),[2],43%
"CC(Cc1ccccc1)NC(=O)C(N)Cc1ccccc1 (centres unmarked) [Phe-Amp, 2-amino-3-phenylpropanoic acid-(1-methyl-2-phenylethyl)-amide]",Bioavailability by parenteral routes of administration,"[2]; rat, parenteral routes",little or no decrease
[2H]N[C@@H](Cc1ccc(O)cc1)C(=O)NC(C)Cc1ccccc1 (some centres unmarked) [Y-Amp],Percent AUC (bioavailability relative to Amphetamine),[1],25%
same,Percent Cmax (relative to Amphetamine),[1],20%
same,Percent AUC (bioavailability relative to Amphetamine),[2],21%
same,Percent Cmax (relative to Amphetamine),[2],20%
C[C@H](N)Cc1ccccc1 [d-amphetamine sulfate],Oral LD50,[5],96.8 mg/kg
same,F of d-amphetamine,[6]; 12 mg/kg,101%
same,F of d-amphetamine,[6]; 60 mg/kg,223%
L-lysine-d-amphetamine diHCl,"Observable signs of toxicity, Groups 4-6",[7],increased motor activity within two hours post-dose
same,"Observable signs of toxicity, Groups 1-3",[7]; Days 1-7,no observable signs
L-lysine-d-amphetamine dimesylate,d-amphetamine released,"[8]; Cellfood ®, 1 h",0 w.t. % d-amphetamine
same,d-amphetamine released,"[8]; Cellfood ®, 24 h",0 w.t. % d-amphetamine
same,d-amphetamine released,"[8]; Drano ® Max with Bacteria, 1 h",0 w.t. % d-amphetamine
same,d-amphetamine released,"[8]; Drano ® Max with Bacteria, 24 h",0 w.t. % d-amphetamine
same,d-amphetamine released,"[8]; Enforcer ® Septic, 1 h",0 w.t. % d-amphetamine
same,d-amphetamine released,"[8]; Enforcer ® Septic, 24 h",0 w.t. % d-amphetamine
same,d-amphetamine released,"[8]; Esterase 3 mg/mL, 1 h",0 w.t. % d-amphetamine
same,d-amphetamine released,"[8]; Esterase 3 mg/mL, 24 h",19 w.t. % d-amphetamine
same,d-amphetamine released,"[8]; Omnigest ®, 1 h",0 w.t. % d-amphetamine
same,d-amphetamine released,"[8]; Omnigest ®, 24 h",0 w.t. % d-amphetamine
same,d-amphetamine released,"[8]; Pancreatin 10 mg/mL, 1 h",0 w.t. % d-amphetamine
same,d-amphetamine released,"[8]; Pancreatin 10 mg/mL, 24 h",0 w.t. % d-amphetamine
same,d-amphetamine released,"[8]; Pepsin 3 mg/mL, 1 h",0 w.t. % d-amphetamine
same,d-amphetamine released,"[8]; Pepsin 3 mg/mL, 24 h",0 w.t. % d-amphetamine
same,d-amphetamine released,"[8]; Pronase 3 mg/mL, 1 h",0 w.t. % d-amphetamine
same,d-amphetamine released,"[8]; Pronase 3 mg/mL, 24 h",24 w.t. % d-amphetamine
same,d-amphetamine released,"[8]; Rid-X ® Septic, 1 h",0 w.t. % d-amphetamine
same,d-amphetamine released,"[8]; Rid-X ® Septic, 24 h",0 w.t. % d-amphetamine
same,d-amphetamine released,"[8]; VitälZym ®, 1 h",0 w.t. % d-amphetamine
same,d-amphetamine released,"[8]; VitälZym ®, 24 h",0 w.t. % d-amphetamine
same,Maximum d-amphetamine release,[9]; 3M sodium hydroxide,25.4%
same,d-amphetamine release,[9]; all other basic conditions,less than 3%
same,"Signs and symptoms of ADHD (ADHD-RS, CPRS) compared to placebo",[10],Significant improvements
